Results on 26 compounds are retold here after patent US11524940B1, “Inhibitors of cysteine proteases and methods of use thereof” (priority 2020, dated 2022).

In this assay the target is 229E Mpro (Human coronavirus 229E (HCoV-229E), UniProt P0C6X1). As to the kind of experiment: 229E Mpro activity. As to conditions: read-out: 229E Mpro EC50. In kind it is biochemical.
Chain of 229E Mpro (P0C6X1 2966-3267 limits assumed): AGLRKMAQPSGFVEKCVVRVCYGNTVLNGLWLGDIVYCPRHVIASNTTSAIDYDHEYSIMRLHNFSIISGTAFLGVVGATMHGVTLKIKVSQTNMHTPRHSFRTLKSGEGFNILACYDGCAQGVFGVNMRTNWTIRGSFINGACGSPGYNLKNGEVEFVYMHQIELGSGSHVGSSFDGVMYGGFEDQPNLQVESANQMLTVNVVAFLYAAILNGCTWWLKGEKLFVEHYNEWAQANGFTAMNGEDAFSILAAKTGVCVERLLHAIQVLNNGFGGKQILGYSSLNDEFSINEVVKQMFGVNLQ
Description: Compounds are assayed using standard methods to assess compound activity and IC50. […] The assay buffer contains 20 mM of Tris-HCl (pH 7.3), 100 mM of NaCl, 1 mM of EDTA, 5mM of TCEP and 0.1% BSA.
Take `N#C[C@H](C[C@@H]1CCCNC1=O)NC(=O)[C@H](CC1CC1)NC(=O)c1cc2c(F)ccc(Cl)c2[nH]1` [Compound 832, 7-chloro-N-[(1S)-2-[[(1S)-1-cyano-2-[(3S)-2-oxo-3-piperidyl]ethyl]amino]-1-(cyclopropylmethyl)-2-oxo-ethyl]-4-fluoro-1H-indole-2-carboxamide]: the EC50 is under 2000 nM.

As to `N#C[C@H](C[C@@H]1CCCNC1=O)NC(=O)[C@H](CC1CC1)NC(=O)c1cc2c(F)cc(Cl)cc2[nH]1` [Compound 838, 6-chloro-N-[(1S)-2-[[(1S)-1-cyano-2-[(3S)-2-oxo-3-piperidyl]ethyl]amino]-1-(cyclopropylmethyl)-2-oxo-ethyl]-4-fluoro-1H-indole-2-carboxamide], the EC50 was under 2000 nM.

In the case of `N#C[C@H](C[C@@H]1CCCNC1=O)NC(=O)[C@H](CC1CC1)NC(=O)c1cc2c(Cl)cc(Cl)cc2[nH]1` [Compound 840, 4,6-dichloro-N-[(1S)-2-[[(1S)-1-cyano-2-[(3S)-2-oxo-3-piperidyl]ethyl]amino]-1-(cyclopropylmethyl)-2-oxo-ethyl]-1H-indole-2-carboxamide], the concentration for a half-maximal effect (EC50) is under 2000 nM.

Turning to `N#C[C@H](C[C@@H]1CCCNC1=O)NC(=O)[C@H](CC1CC1)NC(=O)c1cc2cc(Cl)cc(Cl)c2[nH]1` [Compound 842, 5,7-dichloro-N-[(1S)-2-[[(1S)-1-cyano-2-[(3S)-2-oxo-3-piperidyl]ethyl]amino]-1-(cyclopropylmethyl)-2-oxo-ethyl]-1H-indole-2-carboxamide], the EC50 is under 2000 nM.

As for `COc1ccc(Br)c2[nH]c(C(=O)N[C@@H](CC3CC3)C(=O)N[C@H](C#N)C[C@@H]3CCCNC3=O)cc12` [Compound 846], the EC50 is under 2000 nM.

`N#C[C@H](C[C@@H]1CCCNC1=O)NC(=O)[C@H](CC1CC1)NC(=O)c1[nH]c2cc(Br)ccc2c1F` [Compound 848, 6-bromo-N-[(1S)-2-[[(1S)-1-cyano-2-[(3S)-2-oxo-3-piperidyl]ethyl]amino]-1-(cyclopropylmethyl)-2-oxo-ethyl]-3-fluoro-1H-indole-2-carboxamide]: the EC50 is under 2000 nM.

With `N#C[C@H](C[C@@H]1CCCNC1=O)NC(=O)[C@H](CC1CC1)NC(=O)c1cc2ccc(F)c(Br)c2[nH]1` [Compound 850], the EC50 is 10000 to 30000 nM.

As to `N#C[C@H](C[C@@H]1CCCNC1=O)NC(=O)[C@H](CC1CC1)NC(=O)c1cc2cc(F)cc(Br)c2[nH]1` [Compound 852, 7-bromo-N-((S)-1-(((S)-1-cyano-2-((S)-2-oxopiperidin-3-yl)ethyl)amino)-3-cyclopropyl-1-oxopropan-2-yl)-5-fluoro-1H-indole-2-carboxamide], the concentration for a half-maximal effect (EC50) is under 2000 nM.

Take `N#C[C@H](C[C@@H]1CCCNC1=O)NC(=O)[C@H](CC1CC1)NC(=O)c1cc2c(F)ccc(Br)c2[nH]1` [Compound 854]: the EC50 is under 2000 nM.

On to `N#C[C@H](C[C@@H]1CCCNC1=O)NC(=O)[C@H](CC1CC1)NC(=O)c1cc2c(C(F)(F)F)cccc2[nH]1` [Compound 856, N-((S)-1-(((S)-1-cyano-2-((S)-2-oxopiperidin-3-yl)ethyl)amino)-3-cyclopropyl-1-oxopropan-2-yl)-4-(trifluoromethyl)-1H-indole-2-carboxamide], for which the EC50 was under 2000 nM.

For `N#Cc1cccc2[nH]c(C(=O)N[C@@H](CC3CC3)C(=O)N[C@H](C#N)C[C@@H]3CCCNC3=O)cc12` [Compound 858], the EC50 is under 2000 nM.

For the compound `N#Cc1ccc2[nH]c(C(=O)N[C@@H](CC3CC3)C(=O)N[C@H](C#N)C[C@@H]3CCCNC3=O)cc2c1` [Compound 860], the EC50 is under 2000 nM.

On to `N#Cc1ccc2cc(C(=O)N[C@@H](CC3CC3)C(=O)N[C@H](C#N)C[C@@H]3CCCNC3=O)[nH]c2c1` [Compound 862, 6-cyano-N-[(1S)-2-[[(1S)-1-cyano-2-[(3S)-2-oxo-3-piperidyl]ethyl]amino]-1-(cyclopropylmethyl)-2-oxo-ethyl]-1H-indole-2-carboxamide], for which the EC50 is under 2000 nM.

As to `N#C[C@H](C[C@@H]1CCCNC1=O)NC(=O)[C@H](CC1CC1)NC(=O)c1ccc(Cl)[nH]1` [Compound 864], the EC50 is under 2000 nM.

For the compound `N#C[C@H](C[C@@H]1CCCNC1=O)NC(=O)[C@H](CC1CC1)NC(=O)c1cc(Cl)c(Cl)[nH]1` [Compound 866, 4,5-dichloro-N-[(1S)-2-[[(1S)-1-cyano-2-[(3S)-2-oxo-3-piperidyl]ethyl]amino]-1-(cyclopropylmethyl)-2-oxo-ethyl]-1H-pyrrole-2-carboxamide], the EC50 was under 2000 nM.

Regarding `N#C[C@H](C[C@@H]1CCCNC1=O)NC(=O)[C@H](CC1CC1)NC(=O)c1ncc(Cl)[nH]1` [Compound 868], the EC50 is under 2000 nM.

As to `COCCOCCOc1cccc2[nH]c(C(=O)N[C@@H](CC(C)(C)C)C(=O)N[C@H](C#N)C[C@@H]3CCCNC3=O)cc12` [Compound 876, N-[1-[[1-cyano-2-[(3S)-2-oxo-3-piperidyl]ethyl]carbamoyl]-3,3-dimethyl-butyl]-4-[2-(2-methoxyethoxy)ethoxy]-1H-indole-2-carboxamide], the concentration for a half-maximal effect (EC50) is under 2000 nM.

Regarding `COc1ccc(Cl)c2[nH]c(C(=O)N[C@@H](CC(C)(C)C)C(=O)N[C@H](C#N)C[C@@H]3CCNC3=O)cc12` [Compound 892], the EC50 is under 2000 nM.

Take `COc1cc(Cl)c2[nH]c(C(=O)N[C@@H](CC(C)(C)C)C(=O)N[C@H](C#N)C[C@@H]3CCNC3=O)cc2c1` [Compound 894]: the EC50 is under 2000 nM.

As for `COc1ccc(Cl)c2[nH]c(C(=O)N[C@@H](CC3CC3)C(=O)N[C@H](C#N)C[C@@H]3CCCNC3=O)cc12` [Compound 898, 7-chloro-N-[(1S)-2-[[(1S)-1-cyano-2-[(3S)-2-oxo-3-piperidyl]ethyl]amino]-1-(cyclopropylmethyl)-2-oxo-ethyl]-4-methoxy-1H-indole-2-carboxamide], the EC50 was under 2000 nM.

`COc1cc(Cl)c2[nH]c(C(=O)N[C@@H](CC3CC3)C(=O)N[C@H](C#N)C[C@@H]3CCCNC3=O)cc2c1` [Compound 900, 7-chloro-N-((S)-1-(((S)-1-cyano-2-((S)-2-oxopiperidin-3-yl)ethyl)amino)-3-cyclopropyl-1-oxopropan-2-yl)-5-methoxy-1H-indole-2-carboxamide]: the EC50 is under 2000 nM.

In the case of `COc1cc(Cl)cc2[nH]c(C(=O)N[C@@H](CC3CC3)C(=O)N[C@H](C#N)C[C@@H]3CCCNC3=O)cc12` [Compound 906, 6-chloro-N-[(1S)-2-[[(1S)-1-cyano-2-[(3S)-2-oxo-3-piperidyl]ethyl]amino]-1-(cyclopropylmethyl)-2-oxo-ethyl]-4-methoxy-1H-indole-2-carboxamide], the EC50 is under 2000 nM.

With `COc1cccc2[nH]c(C(=O)N[C@@H](CC3CC3)C(=O)N[C@H](C#N)C[C@H]3C(=O)Nc4ccccc43)cc12` [Compound 932], the EC50 was under 2000 nM.

In the case of `COCCOCCOc1cccc2[nH]c(C(=O)N[C@@H](CC3CC3)C(=O)N[C@H](C#N)C[C@@H]3CCCNC3=O)cc12` [Compound 1057, N-[(1S)-2-[[(1S)-1-cyano-2-[(3S)-2-oxo-3-piperidyl]ethyl]amino]-1-(cyclopropylmethyl)-2-oxo-ethyl]-4-[2-(2-methoxyethoxy)ethoxy]-1H-indole-2-carboxamide], the EC50 was under 2000 nM.

As for `CN(C(=O)c1cc2cccc(Cl)c2[nH]1)[C@@H](CC1CC1)C(=O)N[C@H](C#N)C[C@@H]1CCCNC1=O` [Compound 1137], the EC50 was 2000 to 10000 nM.

For the compound `COc1cc(Cl)cc2[nH]c(C(=O)N[C@@H](CC(C)(C)C)C(=O)N[C@H](C#N)C[C@@H]3CCCNC3=O)cc12` [Compound 1149], the EC50 was under 2000 nM.

As a reminder, the EC50 is the midpoint of the concentration-response curve.
